{
  "source": "paper PMC4110944",
  "about": "“Probing SH2-domains using Inhibitor Affinity Purification (IAP)” (Proteome Science, 2014)",
  "key": {"PIK3R2": {"target": "T1, PIK3R2 (Homo sapiens, UniProt O00459)", "T1 construct": "Dose response pull-down experiments were accomplished in Colo205 lysates; endogenous in cells; host or cells: Colo205 cell lysate", "assay": "Dose response competition pull-down with free compound 1 against immobilized probe 1 in Colo205 lysate", "assay_type": "binding", "conditions": "Colo205 cell lysate, free compound 1 competing with immobilized probe 1", "procedure": "(§1) A competitive binding experiment was performed to validate the results obtained under pervanadate-depletion conditions (Additional file 4). Dose response pull-down experiments were accomplished in Colo205 lysates with increasing concentrations of the free compound 1 that competes with the immobilized probe 1 for SH2 domain binding (Additional file 5). […] Additionally, these findings underscore the results of the pervanadate depletion experiments that indicate that the regulatory PI3 kinase subunits specifically interact with probe 1 via an SH2 domain. The regulatory PI3K subunits PI3KR1 and PI3KR2 contain a C-terminal and an N-terminal SH2 domain. The real IC50 values are likely smaller than the measured values for PI3KR1 and PI3KR2, since it is impossible to distinguish whether one of the two domains or both simultaneously interact with equal affinity with probe 1[35].\n(§2) Figure 5 Dose-response curves. Pulldown experiments were conducted using probe 1 with Colo205 cell lysate and increasing concentrations of the free compound 1.\n(§3) SH2 probe pulldowns were performed as described previously. […]\n(§4) Raw MS data were processed by MaxQuant (v1.4.0.5) for peak detection and quantification […]"}, "PIK3R1": {"target": "T2, PIK3R1 (Homo sapiens, UniProt P27986)", "T2 construct": "Dose response pull-down experiments were accomplished in Colo205 lysates; endogenous in cells; host or cells: Colo205 cell lysate", "assay": "Dose response competition pull-down with free compound 1 against immobilized probe 1 in Colo205 lysate", "assay_type": "binding", "conditions": "Colo205 cell lysate, free compound 1 competing with immobilized probe 1", "procedure": "as §1, §2, §3, §4"}, "regulatory PI3K subunits": {"test_system": "regulatory PI3K subunits", "assay": "Dose response competition pull-down with free compound 1 against immobilized probe 1 in Colo205 lysate", "assay_type": "binding, human", "conditions": "Colo205 lysates, competition with immobilized probe 1; read-out: IC50 values for the captured regulatory PI3K subunits", "procedure": "as §1, §3"}, "SH2 proteins": {"test_system": "SH2 proteins", "assay": "Dose response competition pull-down in Colo205 lysate", "assay_type": "binding, human", "conditions": "increasing free compound 1", "procedure": "as §1, §3"}, "tubulin beta chain (TBB)": {"target": "T3, tubulin beta chain (TBB) (Homo sapiens, UniProt P07437)", "T3 construct": "Dose response pull-down experiments were accomplished in Colo205 lysates; endogenous in cells; host or cells: Colo205 cell lysate", "assay": "Dose response competition pull-down in Colo205 lysate", "assay_type": "binding", "conditions": "increasing free compound 1", "procedure": "as §1, §3"}},
  "note": "pIC50: −log10 of the molar value.",
  "data": [
    {"smiles": "CCCCCN(CCOCCOCCN)C(=O)[C@H](CCC(=O)O)NC(=O)[C@H](Cc1ccc(C(F)(F)P(=O)(O)O)cc1)NC(C)=O", "note": "[probe 1]", "values": [
      {"measurement": "pIC50", "setting": "PIK3R2", "value": 4.65},
      {"measurement": "pIC50", "setting": "PIK3R1", "value": 4.99},
      {"measurement": "pIC50", "setting": "regulatory PI3K subunits", "value": "4.64 to 5.00"},
      {"measurement": "dose dependence of captured SH2 proteins in the competition experiment", "setting": "SH2 proteins", "value": "dose dependent decrease"},
      {"measurement": "dose dependence of tubulin beta chain (TBB) in the competition experiment", "setting": "tubulin beta chain (TBB)", "value": "do not show dose dependent decrease"}
    ]}
  ]
}
